Test results taken from patent EP2787958B1, “CHELIDONIUM MAJUS EXTRACTS AND THEIR USE IN THE TREATMENT OF SKIN DISORDERS AND PROMOTION OF SKIN REGENERATION” (priority 2011, dated 2013).
Like-named read-outs stand apart in the source and are kept apart here.

Legend:
interleukin 6 (IL-6) = assay: Inflammatory cytokines in cell supernatant (Mosaic ELISA microarray): IL-6; type: cell-based, Human; conditions: for IL-6 ng/(ml* No. of cells from photo) ± SD: 24 hours; for IL-6 production (effect in words): 1-10 µM
Description: (§1) The inflammatory cytokines, CD40 ligand (CD40L), interferon γ (INF-γ), interleukin 1α (IL-1α), interleukin 1β (IL-1β), interleukin 6 (IL-6), interleukin 8 (IL-8), interleukin 17 (IL-17) and tumour necrosis factor α (TNF-α) were determined qualitatively and quantitatively. Each measurement was performed in duplicate using a Mosaic™ ELISA protein microarray assay system from R&D System in accordance with the supplier's instructions. Furthermore, with the aim of obtaining a correlation model between light signal intensity and cytokine concentration, a calibration curve using 6 concentrations was performed for each of them. Analysis of the data was performed using the dedicated Q-View™ Imager software package from Quansys Biosciences

[1] = system: Human dermal fibroblasts (HDF); assay: Mitochondrial dehydrogenase activity (WST-1 formazan assay) in HDF cells; conditions: for Revitalizing agent: 24 hours; for activity at 1 µM / activity at 10 µM: Homo sapiens, Fibroblast, read-out: % mitochondrial dehydrogenase activity ± SD
HDF cells [2] = assay: Summary of uses and toxic effects deduced from the cell assays (Table 1); type: cell-based, Human; conditions: for Anti-fibrotic (prevention of scar formation, also from acne) / Cytoprotective (antioxidant, anti-inflammatory and anti-ageing; useful also in the treatment of acne) / Cytotoxic / Irritant / Wound-healing: 24 hours
Description: Antiradical (skin protective): this is deduced from the free radical scavenger effects.
Revitalizing: this is deduced from the increased mitochondrial dehydrogenase effect.
Cytoprotective, with regard to oxidative damage (antioxidant, anti-inflammatory and anti-ageing): this is deduced from antagonising the stimulation of IL-1β and/or IL-6 induced by 100 µM H2O2 and from the absence of changes in cell morphology similar to the ones due to cell senescence.
Wound healing: this is deduced from the effect of inhibiting the production of IL-1β and by the effect of stimulating cell proliferation under standard growth conditions.
Cytotoxicity: this is deduced from the effect of reducing mitochondrial dehydrogenase activity or from the presence of morphologies characteristic of cell senescence.
Irritation: this is deduced from the effect of increased production of IL-6 and/or IL-1β under standard growth conditions.
Said uses in the fields of medicine and cosmetics or the toxic effects of the substances of the invention at a given dosage, for 24 hours, are summarized in Table 1 below.

HDF cells [3] = assay: Evaluation of cell proliferation (counting of Sirius Red stained cells in photographs); conditions: 24 hours
[4] = Anti-radical activity (decay of the DPPH radical); type: biochemical; conditions: for Anti-radical (skin protective): 24 hours
Description: With regard to assays aimed at evaluating anti-radical activity, a chemical test was used where the decay of the diphenylpicrylhydrazyl (DPPH) radical is assessed in the absence or in the presence of the test substances. Indeed, the DPPH radical is used to test the ability of substances to act as free radical scavengers. DPPH in solution has a purple colour with a maximum absorbance peak at 517 nm which changes to yellow-colourless when this radical extracts a hydrogen atom from a radical scavenger to give rise to the reduced form DPPH-H. The assay has been conducted in quadruplicate in 96 well microplates (SARSTEDT Tissue Culture Plate 96-well flat bottom cell+). 50 µl of an ethanol solution of the test substance at 2X concentration and then 50 µl of a 200 µM solution of DPPH (MW 168,18, Aldrich 2,2-di(4-tert-octylphenyl)-1-picrylhydrazyl, free radical Lot# MKBF7574V Cat N° 257621-100 mg) have been added to each well of the microplate. A positive control consisting of 0.1 mM vitamin C and a negative control consisting of ethanol alone were included in each microplate. After 30 minutes from the addition of DPPH, photographs of the plates were taken (Canon PowerShot A610 5.0 Mpixels) and read spectrophotometrically at 530 nm.
Based on the analysis of the results reported in Table 9, some substances were selected for further characterisation of their anti-radical activity. For the selected substances, dose-activity curves were obtained and the IC50 value were computed using a non-linear regression model with the Hill equation at variable slope. Such substances had been selected due to both their anti-radical potential and the easiness of their isolation/production. The selection of substances was made in view of cosmetics applications. Moreover their activity on human dermal fibroblasts (HDF) is expected to be useful also for the development of dermatological medications. The selected substances are discussed below.

[5] = system: collagen produced by HDF cells; assay: Quantity of collagen produced by the cells (elution of Sirius Red)
interleukin 1β (IL-1β) = assay: Inflammatory cytokines in cell supernatant (Mosaic ELISA microarray): IL-1β; type: cell-based, Human; conditions: for IL-1β ng/(ml* No. of cells from photo) ± SD: 24 hours
Description: as §1

[6] = Dose 1 µm (coptisine: 1 pm [sic])

SMILES: COc1ccc2c(c1OC)CN1CCc3cc4c(cc3[C@@H]1C2)OCO4 [canadine]
- IL-6 ng/(ml* No. of cells from photo) ± SD (interleukin 6 (IL-6); 1 µM, 34 ng/ml TGF-β1): 451±121 ng/(ml* No. of cells from photo)
- IL-6 ng/(ml* No. of cells from photo) ± SD (interleukin 6 (IL-6); 1 µM, 100 µM H2O2): 584±19 ng/(ml* No. of cells from photo)
- IL-6 ng/(ml* No. of cells from photo) ± SD (interleukin 6 (IL-6); 1 µM, Standard conditions): 405±8 ng/(ml* No. of cells from photo)
- IL-6 ng/(ml* No. of cells from photo) ± SD (interleukin 6 (IL-6); 10 µM, 34 ng/ml TGF-β1): 724±43 ng/(ml* No. of cells from photo)
- IL-6 ng/(ml* No. of cells from photo) ± SD (interleukin 6 (IL-6); 10 µM, 100 µM H2O2): 718±63 ng/(ml* No. of cells from photo)
- IL-6 ng/(ml* No. of cells from photo) ± SD (interleukin 6 (IL-6); 10 µM, Standard conditions): 508±43 ng/(ml* No. of cells from photo)
- IL-6 production (effect in words) (interleukin 6 (IL-6); 34 ng/ml TGF-β1): antagonizes the production of IL-6
- IL-6 production (effect in words) (interleukin 6 (IL-6); 100 µM H2O2): antagonizes the production of IL-6
- IL-6 production (effect in words) (interleukin 6 (IL-6); standard conditions): inhibits the production of IL-6
- concentrations below which no significant effects on mitochondrial dehydrogenase activity are shown [1]: below 0.1 µM
- Revitalizing agent [1, 6]: Yes
- Revitalizing agent ([1]; Dose 10 µm): Yes
- activity at 1 µM ([1]; 18 h): 127 ± 3.64%
- activity at 10 µM ([1]; 18 h): 130 ± 32.4%
- activity at 1 µM ([1]; 42 h): 101 ± 10.6%
- activity at 10 µM ([1]; 42 h): 124 ± 5.34%
- activity at 1 µM ([1]; 46 h): 106 ± 5.25%
- activity at 10 µM ([1]; 46 h): 130 ± 11.1%
- mitochondrial dehydrogenase activity (effect in words) ([1]; between 0.1 and 100 µM, exposure time 18 and 42 h): tendency to increase in a dose-dependent manner
- mitochondrial dehydrogenase activity (effect in words) ([1]; fibroblast cells, higher doses): inhibit mitochondrial dehydrogenase activity
- mitochondrial dehydrogenase activity (effect in words) ([1]; fibroblast cells, low dosage): stimulate mitochondrial dehydrogenase activity
- Anti-fibrotic (prevention of scar formation, also from acne) (HDF cells [2]; [6]): Yes (↓collagen, ↓IL-6, ↓IL-1β)
- Cytoprotective (antioxidant, anti-inflammatory and anti-ageing; useful also in the treatment of acne) (HDF cells [2]; [6]): Yes (↓IL-6, ↓IL-1β)
- Cytotoxic (HDF cells [2]; [6]): No
- Irritant (HDF cells [2]; [6]): No
- Wound-healing (HDF cells [2]; [6]): Yes (↓IL-1β)
- Anti-fibrotic (prevention of scar formation, also from acne) (HDF cells [2]; Dose 10 µm): No
- Cytoprotective (antioxidant, anti-inflammatory and anti-ageing; useful also in the treatment of acne) (HDF cells [2]; Dose 10 µm): No
- Cytotoxic (HDF cells [2]; Dose 10 µm): No
- Irritant (HDF cells [2]; Dose 10 µm): Yes (↓IL-1β)
- Wound-healing (HDF cells [2]; Dose 10 µm): No
- concentrations at which no toxic (cytotoxic and irritant) effects are shown (HDF cells [2]; exposure for 24 hours): less than or equal to 1 µM
- No. of cells from photo ± SD (HDF cells [3]; 1 µM, 34 ng/ml TGF-β1): 206±40
- No. of cells from photo ± SD (HDF cells [3]; 1 µM, 100 µM H2O2): 253±32
- No. of cells from photo ± SD (HDF cells [3]; 1 µM, Standard conditions): 207±12
- No. of cells from photo ± SD (HDF cells [3]; 10 µM, 34 ng/ml TGF-β1): 138±3
- No. of cells from photo ± SD (HDF cells [3]; 10 µM, 100 µM H2O2): 188±25
- No. of cells from photo ± SD (HDF cells [3]; 10 µM, Standard conditions): 138±5
- % DPPH activity ([4]; 1 mM, 30 minutes): 103%
- Anti-radical (skin protective) [4, 6]: No
- Anti-radical (skin protective) ([4]; Dose 10 µm): No
- collagen production (effect in words) ([5]; 1 µM, standard conditions): no evident effect on the modulation of collagen production
- collagen production (effect in words) ([5]; 10 µM, standard conditions): collagen production stimulation effect
- collagen production (effect in words) ([5]; 1-10 µM (1 µM and 10 µM), 34 ng/ml TGF-β1): antagonizes the stimulation of collagen induced by 34 ng/ml TGF-β1
- collagen production (effect in words) ([5]; 1-10 µM (1 µM and 10 µM), 100 µM H2O2): inhibits collagen production
- IL-1β production (effect in words) (interleukin 1β (IL-1β); 1 µM, 34 ng/ml TGF-β1): antagonizes the production of IL-1β
- IL-1β ng/(ml* No. of cells from photo) ± SD (interleukin 1β (IL-1β); 1 µM, 34 ng/ml TGF-β1): 116±19 ng/(ml* No. of cells from photo)
- IL-1β production (effect in words) (interleukin 1β (IL-1β); 1 µM, 100 µM H2O2): antagonizes the production of IL-1β
- IL-1β ng/(ml* No. of cells from photo) ± SD (interleukin 1β (IL-1β); 1 µM, 100 µM H2O2): 90±3 ng/(ml* No. of cells from photo)
- IL-1β ng/(ml* No. of cells from photo) ± SD (interleukin 1β (IL-1β); 1 µM, Standard conditions): 81±2 ng/(ml* No. of cells from photo)
- IL-1β production (effect in words) (interleukin 1β (IL-1β); 1 µM, standard conditions): inhibits the production of IL-1β
- IL-1β production (effect in words) (interleukin 1β (IL-1β); 10 µM, 34 ng/ml TGF-β1): antagonizes the production of IL-1β
- IL-1β ng/(ml* No. of cells from photo) ± SD (interleukin 1β (IL-1β); 10 µM, 34 ng/ml TGF-β1): 173±14 ng/(ml* No. of cells from photo)
- IL-1β production (effect in words) (interleukin 1β (IL-1β); 10 µM, 100 µM H2O2): antagonizes the production of IL-1β
- IL-1β ng/(ml* No. of cells from photo) ± SD (interleukin 1β (IL-1β); 10 µM, 100 µM H2O2): 132±138 ng/(ml* No. of cells from photo)
- IL-1β ng/(ml* No. of cells from photo) ± SD (interleukin 1β (IL-1β); 10 µM, Standard conditions): 109±1 ng/(ml* No. of cells from photo)
- IL-1β production (effect in words) (interleukin 1β (IL-1β); 10 µM, standard conditions): stimulates the production of IL-1β
